Data taken from patent US20260297085A1, “1 H-PYRROLO[2,3-B]PYRIDIN-4-YL]-2-OXOPYRROLIDINE-3-CARBONITRILE DERIVATIVES AS TYROSINE KINASE 2 (TYK2) INHIBITORS FOR THE TREATMENT OF INFLAMMATORY DISEASES” (BIOGEN MA INC., priority 2023, published 2026).
Where a name gives a salt, the structure may show the parent alone.

How the values were obtained:
[1] = biological target: T1, human JAK3 kinase domain (JH1) (Homo sapiens, UniProt P52333); test: JH1 biochemical assay for JAK3 (ADP-Glo kinase assay, recombinant JH1 catalytic domain, JAK3-974 peptide, 4 μM ATP); settings: JAK3 JH1, ADP-Glo
T1 construct: recombinantly generated catalytic kinase (also known as JH1) domain of human JAK1, JAK2, JAK3 and TYK2
Summary of the method: (§1)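 ADP-Glo luminescence with 50 μM peptide and 100 min reactions: JAK1 4 nM with JAK3-342 peptide; JAK2, JAK3 and TYK2 at 0.2, 0.3 and 2 nM with JAK3-974 peptide. Compounds tested from 10 or 1 μM top, 11 points, 3-fold. IC50 from a 4-parameter logistic fit of normalized activity.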

[2] = biological target: T2, human TYK2 kinase domain (JH1) (Homo sapiens, UniProt P29597); test: JH1 biochemical assay for TYK2 (ADP-Glo kinase assay, recombinant JH1 catalytic domain, JAK3-974 peptide, 10 μM ATP); settings: TYK2 JH1, ADP-Glo
T2 construct: recombinantly generated catalytic kinase (also known as JH1) domain of human JAK1, JAK2, JAK3 and TYK2
T2 sequence (P29597 897-1176 limits assumed): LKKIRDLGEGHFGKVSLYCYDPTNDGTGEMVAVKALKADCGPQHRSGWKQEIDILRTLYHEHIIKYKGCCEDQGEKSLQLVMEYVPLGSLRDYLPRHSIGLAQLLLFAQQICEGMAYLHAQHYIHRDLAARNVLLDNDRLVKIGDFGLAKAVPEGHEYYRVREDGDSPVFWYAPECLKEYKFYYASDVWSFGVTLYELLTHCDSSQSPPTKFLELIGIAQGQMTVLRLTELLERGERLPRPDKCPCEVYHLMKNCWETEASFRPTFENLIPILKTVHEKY
Summary of the method: as §1

[3] = biological target: T3, human JAK1 kinase domain (JH1) (Homo sapiens, UniProt P23458); test: JH1 biochemical assay for JAK1 (ADP-Glo kinase assay, recombinant JH1 catalytic domain, JAK3-342 peptide, 35 μM ATP); settings: JAK1 JH1, ADP-Glo
T3 construct: recombinantly generated catalytic kinase (also known as JH1) domain of human JAK1, JAK2, JAK3 and TYK2
Summary of the method: as §1

[4] = biological target: JAK1 kinase activity on STAT3 in TF1 cells (Homo sapiens, UniProt P23458); test: pSTAT3 cell assay (MSD; TF1 cells, 30 ng/mL IL-6 stimulation); assay type: cell-based; settings: 30 ng/mL IL-6, 15 minutes
Summary of the method: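 IC50 values derive from 4-parameter logistic fits of normalized pSTAT3 signal, measured by MSD with anti-STAT3 antibodies. TF1 cells, serum-starved beforehand, received compound for 1 hour (top concentration 10 μM, four-fold steps, 10 points) before a 15-minute IL-6 (30 ng/mL) stimulus.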

[5] = biological target: Tyk2 kinase activity on STAT4 in NK92 cells (Homo sapiens, UniProt P29597); test: pSTAT4 cell assay (MSD; NK92 cells, 30 ng/mL IL2 stimulation); assay type: cell-based; settings: 30 ng/mL IL2, 15 minutes
Summary of the method: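 IC50 values come from 4-parameter logistic fits of normalized percent activity. Phospho-STAT was read by MSD (anti-STAT4 antibodies) in NK92 lysates after a 15 min stimulation with 30 ng/mL IL2. The serum-starved cells had been given compound for 1 h (10 points, four-fold, top 10 μM).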

[6] = biological target: JAK2 kinase activity on STAT5 in TF1 cells (Homo sapiens, UniProt O60674); test: pSTAT5 cell assay (MSD; TF1 cells, 30 ng/mL IL-3 stimulation); assay type: cell-based; settings: 30 ng/mL IL-3, 15 minutes
Summary of the method: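 IC50 from a 4-parameter logistic fit of normalized pSTAT5 signal, measured by MSD in lysates of TF1 cells. Cells were serum-starved, exposed to compound for 1 h (top concentration 10 μM, four-fold, 10 points), then given IL-3 at 30 ng/mL for 15 min.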

[7] = biological target: T4, human JAK2 kinase domain (JH1) (Homo sapiens, UniProt O60674); test: JH1 biochemical assay for JAK2 (ADP-Glo kinase assay, recombinant JH1 catalytic domain, JAK3-974 peptide, 15 μM ATP); settings: JAK2 JH1, ADP-Glo
T4 construct: recombinantly generated catalytic kinase (also known as JH1) domain of human JAK1, JAK2, JAK3 and TYK2
Summary of the method: as §1

Sequence of JAK2 kinase activity on STAT5 in TF1 cells (O60674 whole entry): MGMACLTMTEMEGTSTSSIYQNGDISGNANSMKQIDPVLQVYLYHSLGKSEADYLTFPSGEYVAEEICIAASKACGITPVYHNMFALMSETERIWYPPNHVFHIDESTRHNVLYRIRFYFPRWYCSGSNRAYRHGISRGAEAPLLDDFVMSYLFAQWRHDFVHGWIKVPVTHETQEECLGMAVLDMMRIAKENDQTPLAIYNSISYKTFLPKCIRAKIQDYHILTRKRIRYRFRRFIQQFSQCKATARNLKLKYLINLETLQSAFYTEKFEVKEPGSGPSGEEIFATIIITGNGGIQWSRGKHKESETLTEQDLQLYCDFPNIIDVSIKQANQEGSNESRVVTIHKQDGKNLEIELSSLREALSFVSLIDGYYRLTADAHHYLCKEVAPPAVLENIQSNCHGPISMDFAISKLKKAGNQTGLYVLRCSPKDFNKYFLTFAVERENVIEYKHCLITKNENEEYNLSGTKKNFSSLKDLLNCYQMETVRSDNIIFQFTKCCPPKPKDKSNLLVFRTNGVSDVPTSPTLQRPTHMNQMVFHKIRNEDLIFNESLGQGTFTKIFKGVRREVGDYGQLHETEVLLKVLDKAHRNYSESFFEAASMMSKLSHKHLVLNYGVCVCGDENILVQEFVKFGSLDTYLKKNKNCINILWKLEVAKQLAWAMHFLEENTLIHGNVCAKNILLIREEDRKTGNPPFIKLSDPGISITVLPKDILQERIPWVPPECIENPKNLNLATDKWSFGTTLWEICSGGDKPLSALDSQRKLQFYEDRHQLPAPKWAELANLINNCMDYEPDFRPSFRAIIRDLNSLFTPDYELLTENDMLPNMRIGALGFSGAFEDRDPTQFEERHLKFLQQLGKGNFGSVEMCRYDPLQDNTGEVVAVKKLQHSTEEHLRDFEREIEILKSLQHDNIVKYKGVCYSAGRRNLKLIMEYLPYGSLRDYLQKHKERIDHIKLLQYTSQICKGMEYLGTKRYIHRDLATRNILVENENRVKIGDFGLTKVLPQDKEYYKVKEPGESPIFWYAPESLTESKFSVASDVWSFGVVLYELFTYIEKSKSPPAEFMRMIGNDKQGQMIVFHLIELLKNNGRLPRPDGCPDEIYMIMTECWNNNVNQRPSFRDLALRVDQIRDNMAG
Sequence of Tyk2 kinase activity on STAT4 in NK92 cells (P29597 whole entry): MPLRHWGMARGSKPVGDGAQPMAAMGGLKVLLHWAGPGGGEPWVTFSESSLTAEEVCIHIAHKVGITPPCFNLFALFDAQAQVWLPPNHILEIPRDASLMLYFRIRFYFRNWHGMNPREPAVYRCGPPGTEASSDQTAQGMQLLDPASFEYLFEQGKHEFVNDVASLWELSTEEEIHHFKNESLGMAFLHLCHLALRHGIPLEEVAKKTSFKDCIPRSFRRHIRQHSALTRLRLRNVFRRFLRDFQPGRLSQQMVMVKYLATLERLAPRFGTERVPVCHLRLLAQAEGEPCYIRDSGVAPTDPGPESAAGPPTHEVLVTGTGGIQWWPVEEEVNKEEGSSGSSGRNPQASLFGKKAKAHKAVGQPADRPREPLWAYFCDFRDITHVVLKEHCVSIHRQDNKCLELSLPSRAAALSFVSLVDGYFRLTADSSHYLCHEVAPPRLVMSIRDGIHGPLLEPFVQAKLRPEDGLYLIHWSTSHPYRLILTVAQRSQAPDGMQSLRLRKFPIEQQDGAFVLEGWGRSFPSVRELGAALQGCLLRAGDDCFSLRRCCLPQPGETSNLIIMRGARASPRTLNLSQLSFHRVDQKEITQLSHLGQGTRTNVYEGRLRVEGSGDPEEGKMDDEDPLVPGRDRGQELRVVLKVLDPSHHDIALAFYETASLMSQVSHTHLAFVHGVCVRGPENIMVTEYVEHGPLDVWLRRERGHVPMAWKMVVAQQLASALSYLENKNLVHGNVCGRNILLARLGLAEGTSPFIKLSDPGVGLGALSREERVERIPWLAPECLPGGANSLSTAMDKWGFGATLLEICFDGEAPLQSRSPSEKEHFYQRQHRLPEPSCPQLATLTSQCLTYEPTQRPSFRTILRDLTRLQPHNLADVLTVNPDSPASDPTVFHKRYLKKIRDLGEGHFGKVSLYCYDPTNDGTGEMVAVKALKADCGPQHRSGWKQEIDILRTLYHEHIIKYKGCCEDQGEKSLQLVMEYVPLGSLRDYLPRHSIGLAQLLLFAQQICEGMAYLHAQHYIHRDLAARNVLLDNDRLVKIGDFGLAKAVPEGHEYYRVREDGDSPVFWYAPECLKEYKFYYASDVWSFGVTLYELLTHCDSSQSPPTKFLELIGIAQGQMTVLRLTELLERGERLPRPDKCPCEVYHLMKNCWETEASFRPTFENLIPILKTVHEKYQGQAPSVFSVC
T1 sequence (P52333 822-1111 limits assumed): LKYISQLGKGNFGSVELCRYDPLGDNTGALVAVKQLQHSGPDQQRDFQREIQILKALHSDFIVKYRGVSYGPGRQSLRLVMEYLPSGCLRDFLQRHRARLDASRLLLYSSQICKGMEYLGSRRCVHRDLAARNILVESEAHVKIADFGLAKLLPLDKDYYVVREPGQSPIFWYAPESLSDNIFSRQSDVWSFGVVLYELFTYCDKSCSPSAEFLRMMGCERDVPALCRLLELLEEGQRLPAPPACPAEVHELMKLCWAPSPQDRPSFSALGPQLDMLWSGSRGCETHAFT
T3 sequence (P23458 875-1153 limits assumed): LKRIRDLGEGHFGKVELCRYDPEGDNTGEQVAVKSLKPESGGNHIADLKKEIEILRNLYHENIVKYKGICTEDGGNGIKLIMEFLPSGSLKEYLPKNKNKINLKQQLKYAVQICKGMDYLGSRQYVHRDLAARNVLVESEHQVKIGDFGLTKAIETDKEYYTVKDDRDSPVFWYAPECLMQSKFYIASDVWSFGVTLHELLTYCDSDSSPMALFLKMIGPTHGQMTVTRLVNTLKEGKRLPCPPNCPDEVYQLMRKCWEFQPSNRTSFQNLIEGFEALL
T4 sequence (O60674 849-1124 limits assumed): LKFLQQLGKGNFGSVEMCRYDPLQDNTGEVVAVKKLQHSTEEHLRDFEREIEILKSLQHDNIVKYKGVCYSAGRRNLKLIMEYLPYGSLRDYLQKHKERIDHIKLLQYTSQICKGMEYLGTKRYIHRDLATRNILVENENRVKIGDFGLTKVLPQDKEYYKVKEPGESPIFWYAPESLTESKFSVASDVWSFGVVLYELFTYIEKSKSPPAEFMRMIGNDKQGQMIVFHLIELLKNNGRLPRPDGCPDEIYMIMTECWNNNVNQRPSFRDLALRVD
Sequence of JAK1 kinase activity on STAT3 in TF1 cells (P23458 whole entry): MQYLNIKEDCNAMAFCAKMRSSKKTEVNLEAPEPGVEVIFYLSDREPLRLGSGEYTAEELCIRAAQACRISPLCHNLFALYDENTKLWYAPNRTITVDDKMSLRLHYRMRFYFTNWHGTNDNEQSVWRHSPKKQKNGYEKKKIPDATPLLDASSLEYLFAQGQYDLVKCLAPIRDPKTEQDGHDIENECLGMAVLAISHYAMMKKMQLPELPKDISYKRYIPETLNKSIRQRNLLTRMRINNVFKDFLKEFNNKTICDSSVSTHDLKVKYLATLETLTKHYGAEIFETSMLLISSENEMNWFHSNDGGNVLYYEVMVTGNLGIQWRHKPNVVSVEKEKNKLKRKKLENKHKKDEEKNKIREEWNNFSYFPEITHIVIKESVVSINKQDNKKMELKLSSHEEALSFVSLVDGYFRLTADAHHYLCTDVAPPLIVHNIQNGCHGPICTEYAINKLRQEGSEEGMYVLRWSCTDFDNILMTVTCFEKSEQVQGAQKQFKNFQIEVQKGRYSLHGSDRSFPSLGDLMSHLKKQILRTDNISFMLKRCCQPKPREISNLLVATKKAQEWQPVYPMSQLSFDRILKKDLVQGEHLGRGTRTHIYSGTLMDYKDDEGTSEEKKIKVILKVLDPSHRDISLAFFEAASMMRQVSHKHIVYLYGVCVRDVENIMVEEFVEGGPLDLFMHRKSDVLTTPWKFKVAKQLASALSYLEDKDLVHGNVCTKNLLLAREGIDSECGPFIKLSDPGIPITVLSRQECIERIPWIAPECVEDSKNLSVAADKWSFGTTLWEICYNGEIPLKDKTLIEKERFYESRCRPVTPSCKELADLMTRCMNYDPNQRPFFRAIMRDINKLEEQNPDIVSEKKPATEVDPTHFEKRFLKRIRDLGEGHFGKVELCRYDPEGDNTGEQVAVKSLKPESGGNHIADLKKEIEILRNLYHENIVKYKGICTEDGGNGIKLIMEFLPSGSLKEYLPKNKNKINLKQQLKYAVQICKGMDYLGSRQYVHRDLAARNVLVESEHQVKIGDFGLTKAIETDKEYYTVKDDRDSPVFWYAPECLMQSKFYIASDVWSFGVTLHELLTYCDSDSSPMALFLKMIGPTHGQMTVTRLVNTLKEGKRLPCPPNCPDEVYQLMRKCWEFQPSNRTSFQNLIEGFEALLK

IC50 [1] [nM]	IC50 [2] [nM]	IC50 [3] [nM]	IC50 [4] [nM]	IC50 [5] [nM]	IC50 [6] [nM]	IC50 [7] [nM]	SMILES
< 100	< 5	< 100	100 to 1000	50 to 100	1000 to 5000	100 to 1000	Cc1ncc(-c2cn3nccc3c(N3C[C@@H](C)[C@@](C#N)(C4CC4)C3=O)n2)s1 [Example 239, (3R,4S)-3-cyclopropyl-4-methyl-1-(6-(2-methylthiazol-5-yl)pyrazolo[1,5-a]pyrazin-4-yl)-2-oxopyrrolidine-3-carbonitrile]
100 to 1000	5 to 20	100 to 1000	5000 to 10000	> 100	> 10000	100 to 1000	COc1cncc(-c2cn3nccc3c(N3C[C@@H](C)[C@@](C#N)(C4CC4)C3=O)n2)c1 [Example 244, (3R,4S)-3-cyclopropyl-1-(6-(5-methoxypyridin-3-yl)pyrazolo[1,5-a]pyrazin-4-yl)-4-methyl-2-oxopyrrolidine-3-carbonitrile trifluoroacetate]
< 100	< 5	< 100	100 to 1000	50 to 100	1000 to 5000	100 to 1000	C[C@@H]1CN(c2nc(-c3ccc(=O)n(C)c3)cn3nccc23)C(=O)[C@]1(C#N)C1CC1 [Example 245, (3R,4S)-3-cyclopropyl-4-methyl-1-(6-(1-methyl-6-oxo-1,6-dihydropyridin-3-yl)pyrazolo[1,5-a]pyrazin-4-yl)-2-oxopyrrolidine-3-carbonitrile]
< 100	< 5	< 100	100 to 1000	20 to 50	100 to 1000	< 100	C[C@@H]1CN(c2nc(-c3cnn(C4COC4)c3)cn3nccc23)C(=O)[C@]1(C#N)C1CC1 [Example 251, (3R,4S)-3-cyclopropyl-4-methyl-1-(6-(1-(oxetan-3-yl)-1H-pyrazol-4-yl)pyrazolo[1,5-a]pyrazin-4-yl)-2-oxopyrrolidine-3-carbonitrile]
100 to 1000	5 to 20	100 to 1000	1000 to 5000	> 100	> 10000	100 to 1000	CNC(=O)c1cc(-c2cn3nccc3c(N3C[C@@H](C)[C@@](C#N)(C4CC4)C3=O)n2)ccn1 [Example 252, 4-(4-((3R,4S)-3-cyano-3-cyclopropyl-4-methyl-2-oxopyrrolidin-1-yl)pyrazolo[1,5-a]pyrazin-6-yl)-N-methylpicolinamide trifluoroacetate]
100 to 1000	5 to 20	< 100	1000 to 5000	> 100	5000 to 10000	100 to 1000	C[C@@H]1CN(c2nc(-c3ccc(S(C)(=O)=O)nc3)cn3nccc23)C(=O)[C@]1(C#N)C1CC1 [Example 257, (3R,4S)-3-cyclopropyl-4-methyl-1-(6-(6-(methylsulfonyl)pyridin-3-yl)pyrazolo[1,5-a]pyrazin-4-yl)-2-oxopyrrolidine-3-carbonitrile trifluoroacetate]
< 100	5 to 20	< 100	1000 to 5000	> 100	> 10000	100 to 1000	C[C@@H]1CN(c2nc(-c3cncc(O)c3)cn3nccc23)C(=O)[C@]1(C#N)C1CC1 [Example 258, (3R,4S)-3-cyclopropyl-1-(6-(5-hydroxypyridin-3-yl)pyrazolo[1,5-a]pyrazin-4-yl)-4-methyl-2-oxopyrrolidine-3-carbonitrile trifluoroacetate]

Further lines, the molecule ahead of its results:

SMILES	IC50 [1] [nM]	IC50 [2] [nM]	IC50 [3] [nM]	IC50 [4] [nM]	IC50 [5] [nM]	IC50 [6] [nM]	IC50 [7] [nM]
CC(=O)Nc1cc(-c2cn3nccc3c(N3C[C@@H](C)[C@@](C#N)(C4CC4)C3=O)n2)ccn1 [Example 228, N-(4-(4-((3R,4S)-3-cyano-3-cyclopropyl-4-methyl-2-oxopyrrolidin-1-yl)pyrazolo[1,5-a]pyrazin-6-yl)pyridin-2-yl)acetamide]	< 100	< 5	< 100	100 to 1000	50 to 100	1000 to 5000	100 to 1000
C[C@@H]1CN(c2nc(-c3cnc4[nH]ccc4c3)cn3nccc23)C(=O)[C@]1(C#N)C1CC1 [Example 230, (3R,4S)-1-(6-(1H-pyrrolo[2,3-b]pyridin-5-yl)pyrazolo[1,5-a]pyrazin-4-yl)-3-cyclopropyl-4-methyl-2-oxopyrrolidine-3-carbonitrile]	< 100	< 5	< 100	100 to 1000	5 to 20	1000 to 5000	100 to 1000
C[C@@H]1CN(c2nc(-c3cc[nH]n3)cn3nccc23)C(=O)[C@]1(C#N)C1CC1 [Example 232, (3R,4S)-1-(6-(1H-pyrazol-3-yl)pyrazolo[1,5-a]pyrazin-4-yl)-3-cyclopropyl-4-methyl-2-oxopyrrolidine-3-carbonitrile trifluoroacetate]	100 to 1000	5 to 20	< 100	1000 to 5000	> 100	> 10000	100 to 1000
Cc1ccc(-c2cn3nccc3c(N3C[C@@H](C)[C@@](C#N)(C4CC4)C3=O)n2)cn1 [Example 233, (3R,4S)-3-cyclopropyl-4-methyl-1-(6-(6-methylpyridin-3-yl)pyrazolo[1,5-a]pyrazin-4-yl)-2-oxopyrrolidine-3-carbonitrile trifluoroacetate]	< 100	< 5	< 100	1000 to 5000	> 100	1000 to 5000	100 to 1000
C[C@@H]1CN(c2nc(-c3ccnc(C(F)(F)F)c3)cn3nccc23)C(=O)[C@]1(C#N)C1CC1 [Example 234, (3R,4S)-3-cyclopropyl-4-methyl-2-oxo-1-(6-(2-(trifluoromethyl)pyridin-4-yl)pyrazolo[1,5-a]pyrazin-4-yl)pyrrolidine-3-carbonitrile trifluoroacetate]	100 to 1000	5 to 20	100 to 1000	> 10000	> 100	> 10000	100 to 1000
C[C@@H]1CN(c2nc(-c3cnc4c(c3)OCC(=O)N4C)cn3nccc23)C(=O)[C@]1(C#N)C1CC1 [Example 235, (3R,4S)-3-cyclopropyl-4-methyl-1-(6-(4-methyl-3-oxo-3,4-dihydro-2H-pyrido[3,2-b][1,4]oxazin-7-yl)pyrazolo[1,5-a]pyrazin-4-yl)-2-oxopyrrolidine-3-carbonitrile trifluoroacetate]	100 to 1000	< 5	< 100	> 10000	> 100	> 10000	100 to 1000
Cc1cncc(-c2cn3nccc3c(N3C[C@@H](C)[C@@](C#N)(C4CC4)C3=O)n2)c1 [Example 236, (3R,4S)-3-cyclopropyl-4-methyl-1-(6-(5-methylpyridin-3-yl)pyrazolo[1,5-a]pyrazin-4-yl)-2-oxopyrrolidine-3-carbonitrile]	100 to 1000	5 to 20	100 to 1000	1000 to 5000	> 100	5000 to 10000	100 to 1000
C[C@@H]1CN(c2nc(-c3ccnc(F)c3)cn3nccc23)C(=O)[C@]1(C#N)C1CC1 [Example 237, (3R,4S)-3-cyclopropyl-1-(6-(2-fluoropyridin-4-yl)pyrazolo[1,5-a]pyrazin-4-yl)-4-methyl-2-oxopyrrolidine-3-carbonitrile trifluoroacetate]	100 to 1000	5 to 20	< 100	100 to 1000	50 to 100	5000 to 10000	100 to 1000
